One series relates to Human SCD patients. Put plainly: Computer-assisted intravital microscopy (CAIM) of conjunctival microcirculation, Example 1. It is filed as in vivo. Particulars: SCD patients hospitalized for VOC, high dose, relative to placebo group. From the text: Human SCD patients are enrolled to be studied by a non-invasive videotape of the conjunctival microcirculation. Recently, microvascular characteristics in SCD patients have been quantified using computer-assisted intravital microscopy (CAIM), a novel technology involving intravital video-microscopy coupled with imaging protocols, to study and analyze steady-state and vaso-occlusive crisis (VOC) microvascular characteristics in SCD (Cheung et al, Blood. 2002; 99:3999). During VOC, decreases in vascularity (“blanching”) occur as a result of vasoconstriction and diminished blood flow through the microvessels. […] The microvascular changes during VOC are transient and revert to steady-state values after crisis resolution. These specific reversals in VOC are used as the basis for this study to evaluate and quantify the effects of PPS on the microcirculation.
Because of the unique shape and form of conjunctival vessels, each vessel is easily identified and located to be re-studied. Each vessel serves as its own reference (control) to evaluate and quantify microvascular changes. […] CAIM is used to non-invasively videotape and longitudinally quantify the changes in venular diameter and red-cell velocity pre- and post-treatment of PPS, sulodexide or placebo at various time points post treatment.

Series [1] concerns adhesion of RBC from sickle cell patients (ssRBC) to human umbilical vein endothelial cells (HUVEC). Put plainly: Variable height flow chamber adhesion of ssRBC to endothelial cells, Example 4. Type of series: cell-based. To be noted: HUVEC stimulated with thrombin or TNF-alpha, treated thirty minutes at 37° C., versus control preparations. The method, then: The effects of PPS or sulodexide on sickle cell erythrocyte adhesion are evaluated by in vitro study according to procedures similar to those described in Telen et al. (Blood, 2004, 104:3774); Niihara et al (BMC Blood Disorders, 2005, 5:4); and Barabino et al (Blood, 1999, 93:1422-29). In brief, a variable height flow chamber is used to quantitate the effects of PPS on the adhesion of RBC from sickle cell patients (ssRBC) to endothelial cells. Human umbilical vein endothelial cells (HUVEC) are grown on gelatin coated glass slides until confluent. The HUVEC's are then stimulated with thrombin or TNF-alpha and washed with PBS with Ca^+2 and Mg^+2. Following activation, the endothelial cells are treated with various concentrations of PPS for thirty minutes at 37° C. The endothelial cells are then washed in PBS with Ca^+2 and Mg^+2, mounted onto the variable height flow chamber where the final testing unit is assembled. […] Adhesion is quantitated by counting the adherent ssRBCs in a field in 7 different locations along the slide in the direction of the flow. The height of the chamber at each of these 7 locations is measured so that the shear stress can be calculated; note that the typical range seen is between 0.3 to 2.7 dynes/cm^2. […]

A further series concerns transplanted livers. Particulars: livers pretreated with PPS; cited from earlier work.
A further series deals with LNCaP. Particulars: dependent on anchorage; cited from earlier work.
A further series relates to DU145. To be noted: DU145, dependent on anchorage; cited from earlier work.
For a further series, the system named is PC-3. Particulars: PC-3, not dependent on anchorage; cited from earlier work.
Another series deals with tumor cell adhesion. To be noted: direct measurements, Schamhart; cited from earlier work.
The conditions of series [2]: Wardle 1992; cited from earlier work.
The next series relates to HUVEC cells. Particulars: Barabino et al, Blood 1999; cited from earlier work.
The next series addresses T1, immobilized P-selectin (Homo sapiens, UniProt P16109).
T1 sequence (P16109 42-830): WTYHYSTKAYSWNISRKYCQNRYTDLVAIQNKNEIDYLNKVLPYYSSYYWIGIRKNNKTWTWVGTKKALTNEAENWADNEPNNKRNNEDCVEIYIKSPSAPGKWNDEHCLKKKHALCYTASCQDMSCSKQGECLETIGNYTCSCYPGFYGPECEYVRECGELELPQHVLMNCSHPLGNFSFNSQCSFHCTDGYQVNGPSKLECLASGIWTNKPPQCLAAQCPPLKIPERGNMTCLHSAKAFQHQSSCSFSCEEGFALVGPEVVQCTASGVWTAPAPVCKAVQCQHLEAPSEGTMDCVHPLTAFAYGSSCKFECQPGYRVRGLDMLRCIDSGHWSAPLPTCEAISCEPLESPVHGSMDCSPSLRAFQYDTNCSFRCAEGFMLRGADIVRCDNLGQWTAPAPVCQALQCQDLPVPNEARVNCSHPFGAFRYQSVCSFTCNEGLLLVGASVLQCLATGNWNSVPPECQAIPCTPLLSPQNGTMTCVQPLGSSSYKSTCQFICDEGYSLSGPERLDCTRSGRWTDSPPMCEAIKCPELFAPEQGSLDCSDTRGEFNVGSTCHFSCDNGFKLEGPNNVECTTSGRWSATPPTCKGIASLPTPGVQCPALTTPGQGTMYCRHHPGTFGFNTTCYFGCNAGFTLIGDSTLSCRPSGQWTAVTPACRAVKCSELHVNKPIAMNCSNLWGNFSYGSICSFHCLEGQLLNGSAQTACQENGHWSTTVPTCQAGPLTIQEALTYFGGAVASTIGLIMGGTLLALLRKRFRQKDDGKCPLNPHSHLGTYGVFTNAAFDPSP
Particulars: Matsui, Blood 2002; cited from earlier work.

In a further series the test system is human endothelial cells. To be noted: Gupta et al; cited from earlier work.
For series [3], the system named is patients with sickle cell crises. To be noted: four patients, 12-month self-administered intravenous minidose heparin vs 12 months off heparin; cited from earlier work.

With Pentosan polysulfate [PPS], the “microvascular flow (venular diameter and red-cell velocity by CAIM)” value with Human SCD patients is “significant improvement in microvascular flow”. Also, the “percentage of adherent cells” value in [1] is “reduction”. For the same substance, the “leukocytes adhering to the vascular wall” value in the series on transplanted livers is reported as “significantly fewer”. Moreover, in the series on transplanted livers, the reperfusion edema result is recorded as “no reperfusion edema”. Further, the “growth and migration of tumor cell line” value in the series with LNCaP was “inhibited”; in the series with DU145 it was “inhibited”; in the series on PC-3, “no effect”. In addition, the tumor cell adhesion result in the series with tumor cell adhesion is on record as “inhibited”. Moreover, the “anticoagulant potency relative to heparin” value in series [2] was “about one-fifteenth”.

chondroitin sulfate: the “sickle cell adhesion to HUVEC cells” value in the series on HUVEC cells is given as “inhibited”.

Consider dextran sulfate, for which the “sickle cell adhesion to HUVEC cells” value in the series with HUVEC cells is listed as “inhibited”.

For heparin, on immobilized P-selectin, the “in vitro flow adhesion of sickle cells to immobilized P-selectin” value was “inhibited”. In addition, in the series with HUVEC cells, the “sickle cell adhesion to HUVEC cells” value is given as “inhibited”. In the series with human endothelial cells, the “sickle erythrocyte adhesion to human endothelial cells in vitro” value was “inhibited”. The pain reduction entry in series [3] is “improvement in pain reduction”.

On to heparin sulfate, for which the “sickle cell adhesion to HUVEC cells” value with HUVEC cells was “did not”.

For low molecular weight heparin, at immobilized P-selectin, the “in vitro flow adhesion of sickle cells to immobilized P-selectin” value was “not low molecular weight heparin proved to be effective”.

(Values after patent publication US20080214480A1, “Method for Treating Sickle Cell Disease and Sickle Cell Disease Sequalae” (TRF Pharma, Inc., priority 2005, published 2008).)
